The test system of data set [1] is C1-3 cell line (calcitonin secretion). The data set is described as follows: Calcitonin Secretion/RIA Assay. To be noted: active if >2.5; for fold induction at 30 µM: Homo sapiens, C13, ratio of calcitonin secretion vs untreated control. It is filed as cell-based, human. The method, then: Cell Line: C1-3 (Parent Cell Line: TT-medullary thyroid carcinoma),
Reagent A--(Anti-Calcitonin)
Regent C--(Anti-Goat Precipitant)
Regent D--(Zero Standard).
Reagents E-I--(Calcitonin Standards)
Reagents J-K (Calcitonin Controls: Level and Level 2)
1. Glass tubes were labeled to include Total Count (TC), Nonspecific Binding (NSB), Maximum Binding (Bo), Standards, Controls and Patient Sera in duplicate.
2. […] of Standard Zero (Reagent D) was added to tubes 3 through 6 (NSB and Bo).
3. […] of Standards* (Reagents E-1) was added to tubes 7-16 as follows:
4. […] of Patient Serum 1 was added to tubes 21 and 22, Patient Serum 2 was added to tubes 23 and 24, etc.
5. […] of Reagent L (NSB Buffer) was added to tubes 3 and 4.
6. […] of Reagent A (Anti-Calcitonin) was added to all tubes except tubes 1 & 2 (TC) and tube 3 & 4 (NSB). All tubes were vortexed, covered with parafilm or foil and incubated 44±6 hours at 2-8° C.
7. […] All tubes were vortexed, covered with parafilm or foil and incubated 22±3 hours at 2-8° C.
8. Reagent C (Anti-Goat Precipitant) was mixed gently but thoroughly by inverting the vial several times before use. 1 mL Reagent C was added to all tubes except 1 and 2 (TC). Tubes were vortexed and incubated 20 minutes at room temperature.
9. All tubes were centrifuged at 1300-1500×g for 15 minutes at 2-8° C.
10. Supernatant was decanted immediately after centrifugation taking care to leave the precipitate intact.
11. Tubes were counted 4 minutes or longer.
Secretion Ratio: Stimulation of calcitonin secretion is expressed as a ratio of secretion activity in the presence of test compound compared to the secretion activity in the untreated control: [formula]

Another data set relates to PDE-IV. Nature of the data set: Inhibition of Phosphodiesterase IV (PDE-IV) isolated from human U937 cells. Type of data set: biochemical. To be noted: U937 cell PDE-IV, 1 μM [3H]-cAMP, 37° C., test compound 0.001 μM to 10 μM. Here is the method:
This assay was used to biochemically assess the ability of a test compound to inhibit PDE-IV isolated from a U937 cell line, where PDE-IV refers to the cGMP-insensitive, cAMP-selective PDE.
Cell Culture: U937 cells were grown in RPMI 1640 medium supplemented with 10% heat-inactivated fetal calf serum and Penicillin/Streptomycin (100 units/100 μg per mL) in a humidified 5% CO2 atmosphere at 37° C. Starter cells were maintained in continuous logarithmic growth by seeding them in 75 cm^2 vented tissue culture flasks at a concentration of 3×10^4 cells/mL and passing them every 3-4 days when the cells reached approximately 8×10^5 cells/mL. For experiments, 3-4 day starter cells were seeded in 225 cm^2 flasks at 1×10^5 cells/mL and harvested 3-4 days later at approx. 6×10^5 cells/mL.
Isolation of PDE-IV: U937 cells were activated with 10 μM dibutyryl cAMP for a period of 4 hours (to up-regulate PDE-IV) and then harvested by centrifugation at 1200×g for 10 min in 250 mL conical centrifuge tubes. The pellet from each 200 mL flask was resuspended in 5 mL buffer A [10 mM Tris-HCl, 5 mM MgCl2, 4 mM EGTA, 5 mM 2-mercaptoethanol, 1 μM leupeptin, 1 μM pepstatin A, and 5 μM phenylmethyl sulfonyl fluoride (PMSF) (pH 7.8)], and the cells were lysed using 3 cycles of freezing (3 min in dry ice/acetone) followed by thawing (warm water). […] To determine which families of PDEs were present, fractions may be assayed for hydrolytic activity with 1 μM [^3 H]-cAMP or 1 μM [^3 H]-cGMP. Additionally, 1 μM [^3 H]-cAMP assays were conducted in the presence of 10 μM rolipram, 10 μM cGMP, or calmodulin (1 unit/0.4 mL plus 10 μM CaCl2).
When prepared in this manner, approximately 80% of total cAMP PDE activity is eluted by Buffer B containing 0.7 M sodium acetate. This PDE activity consists of>90% PDE-IV (as evidenced by its susceptibility to inhibition by rolipram.
PDE assay: PDE activity was measured using a modification of the radioisotope procedure previously described by Thompson et al. (Thompson, W. J., Terasaki, W. L., Epstein, P. M. and Strada, S. J. Adv, Cyclic Nucleotide Res. 1979, 10, 69). Reaction mixtures (0.4 mL) contain 40 mM Tris-HCl (pH 7.8), 4 mM 2-mercaptoethanol, 5 mM MgCl2, 0.1 μM leupeptin, 0.1 μM pepstatin A, 0.1 μM PMSF, 1 μM [3H]-cAMP or 1 μM [^3 H]-cGMP (~200,000 DPM), and enzyme to initiate the reaction. ^3 H-cAMP substrate was prepared as follows: A stock solution of ^3 H-cyclic nucleotide (1000 μCi/mL) was diluted 1:10 in 50% EtOH. 200 μl of this diluted stock solution was added to a cold (unlabeled) cyclic nucleotide solution, made at a concentration of 4 μM. 100 μl of this solution was used per assay tube to achieve a final concentration of 1 μM cyclic nucleotide per assay tube (200,000 DPM). Enzyme activity was determined at 37° C. Reactions were terminated by boiling, incubating with snake venom, and cooling as previously described (Thompson et al., 1979). The reaction mixture was applied to a (0.8×8.5 cm) column containing 0.4 g Dowex I-X8 affinity resin; reaction tubes were rinsed with 0.5 mL of methanol; and this, along with an extra 1 mL of methanol, was applied to the column to elute the ^3 H-reaction products. After all liquid has passed through the column, the column was plunged with a 12 cc syringe plunger. Each column's eluate was collected in a 20 mL scintillation vial containing 10 mL aquasol-2 and counted by scintillation spectrophotometry. [^3 H]-adenosine or [^3 H]-guanosine recovery was corrected for background DPM determined in the absence of enzyme. The amount of enzyme and duration of assay were adjusted to ensure that less than 25% of the substrate was consumed under these conditions.
Measurements: Inhibition by a test compound was measured as a percent reduction of total PDE activity, and calculated as follows: [formula] where A is the PDE activity (mean DPM-background DPM) in the presence of test compound, and B is the total PDE-IV activity (mean DPM-background DPM) in the absence of test compound. […]

In data set [2] the test system is promoter region of the human calcitonin gene (luciferase reporter, C1-3 cells). The data set is described as follows: Calcitonin/Luciferase Reporter Gene Expression Assay. To be noted: for fold induction at 30 µM: read-out: TAR (transcription activation ratio).
Experimental: This assay was used to determine the ability of a compound to stimulate transcription of a luciferase reporter gene regulated by 3 kb of the promoter region of the human calcitonin gene.
C1-3 cells were plated at a density of 6,500-7,500 cells per well in a 96-plate microtiter plate. Twenty-four to forty-eight hours later, compounds were added to the wells in triplicate. Compounds were tested at a concentration of 10 μg/mL in 0.5% DMSO.
The production of light is measured on a luminometer.
TAR Ratio: Stimulation of calcitonin promoter-dependent transcription is expressed as a ratio of luciferase activity (LUCI) in the presence of test compound compared to the LUCI activity in the untreated control: [formula]

For the molecule `CCCCn1c(=O)c2cn(S(=O)(=O)Cc3ccccc3)nc2n(CCCC)c1=O` [Example 19, 5,7-Dibutyl-2-phenylmethanesulfonyl-1,7-dihydro-pyrazolo[3,4-d]pyrimidine-4,6-dione], the fold induction at 30 µM in data set [1] stood at 3.43; in data set [2] (Homo sapiens, C13, 12 h) it was 1.97. Besides, in the data set with PDE-IV, the “% Inhibition of PDE IV (normalized to rolipram)” value is listed as 48%.

Consider `CCCCn1c(=O)c2nn(S(=O)(=O)c3c(Cl)cc(Cl)cc3Cl)cc2n(CCCC)c1=O` [Example 11, 4,6-Dibutyl-2-(2,4,6-trichloro-benzenesulfonyl)-2,4-dihydro-pyrazolo[4,3-d]pyrimidine-5,7-dione], for which the fold induction at 30 µM in data set [1] was 4.31; in data set [2] (Homo sapiens, C13, 12 h), 1.76. Besides, the “% Inhibition of PDE IV (normalized to rolipram)” value in the data set on PDE-IV was determined as 26%.

As for `O=c1c2cn(S(=O)(=O)CCCCl)nc2n(CC2CC2)c(=O)n1CC1CC1` [Example 22, 2-(3-Chloro-propane-1-sulfonyl)-5,7-bis-cyclopropylmethyl-2,7-dihydro-pyrazolo[3,4-d]pyrimidine-4,6-dione], the fold induction at 30 µM was found to be 2.93 in data set [1] and 1.6 in data set [2] (Homo sapiens, C13, 12 h). Also, the “% Inhibition of PDE IV (normalized to rolipram)” value with PDE-IV is recorded as 30%.

With `CCCCn1c(=O)c2nn(S(=O)(=O)Cc3ccccc3)cc2n(CCCC)c1=O` [Example 2, 4,6-Dibutyl-2-phenylmethanesulfonyl-2,4-dihydro-pyrazolo[4,3-d]pyrimidine-5,7-dione], the fold induction at 30 µM came to 2.55 in data set [1] and 1.51 in data set [2] (Homo sapiens, C13, 12 h). Moreover, in the data set with PDE-IV, the “% Inhibition of PDE IV (normalized to rolipram)” value was determined as 35%.

Consider `CCCCn1c(=O)c2cn(S(=O)(=O)CCCCl)nc2n(CCCC)c1=O` [Example 13, 5,7-Dibutyl-2-(3-chloro-propane-1-sulfonyl)-2,7-dihydro-pyrazolo[3,4-d]pyrimidine-4,6-dione], for which the fold induction at 30 µM in data set [1] stood at 2.71; in data set [2] (Homo sapiens, C13, 12 h), 1.91. Besides, the “% Inhibition of PDE IV (normalized to rolipram)” value with PDE-IV amounted to 34%.

Take `CCCCn1c(=O)c2cn(S(=O)(=O)c3cc(Cl)c(Cl)s3)nc2n(CCCC)c1=O` [Example 15, 5,7-Dibutyl-2-(4,5-dichloro-thiophene-2-sulfonyl)-2,7-dihydro-pyrazolo[3,4-d]pyrimidine-4,6-dione]: the fold induction at 30 µM was 3.67 in data set [1] and 2.93 in data set [2] (Homo sapiens, C13, 12 h). Moreover, the “% Inhibition of PDE IV (normalized to rolipram)” value in the data set with PDE-IV is 59%.

As to `CCCCn1c(=O)c2cn(S(=O)(=O)c3ccc(C(F)(F)F)cc3)nc2n(CCCC)c1=O` [Example 16, 5,7-Dibutyl-2-(4-trifluoromethyl-benzenesulfonyl)-2,7-dihydro-pyrazolo[3,4-d]pyrimidine-4,6-dione], the fold induction at 30 µM in data set [1] is 3.86; in data set [2] (Homo sapiens, C13, 12 h) it was 2.61. Also, the “% Inhibition of PDE IV (normalized to rolipram)” value in the data set with PDE-IV came to 62%.

For `Nc1ncnc2c1nc(Sc1ccc(Cl)cc1)n2[C@@H]1O[C@@H]2COP(=O)(O)O[C@H]2[C@H]1O` [Example 8-CPT-cAMP, 8-CPT-cAMP, reference compound], in data set [2] (Homo sapiens, C13, 12 h, read-out: fold induction of luciferase (control stimulation)), the fold induction at 1000 µM was 2 to 3.

Turning to `CCCCn1c(=O)c2cn(S(C)(=O)=O)nc2n(CCCC)c1=O` [Example 17, 5,7-Dibutyl-2-methanesulfonyl-2,7-dihydro-pyrazolo[3,4-d]pyrimidine-4,6-dione], the fold induction at 30 µM in data set [1] stood at 3.93; in data set [2] (Homo sapiens, C13, 12 h), 1.95. Moreover, in the data set with PDE-IV, the “% Inhibition of PDE IV (normalized to rolipram)” value was 17%.

Regarding “4,6-Dibutyl-1-(propane-1-sulfonyl)-1,4-dihydro-pyrazolo[4,3-d]pyrimidine-5,7-dione [Example 9]”, the “Secretion Ratio” value in data set [1] (30 μM, ratio of calcitonin secretion vs untreated control) is listed as 2.71. Also, the “% Inhibition of PDE IV (normalized to rolipram)” value in the data set with PDE-IV was determined as 27%. Also, the “TAR (transcription activation ratio)” value in data set [2] (30 μM, ratio of luciferase activity vs untreated control, active if TAR>1.5) turned out to be 1.47.

Turning to `Cn1c(=O)c2cn(S(=O)(=O)CCCCl)nc2n(C)c1=O` [Example 21, 2-(3-Chloro-propane-1-sulfonyl)-5,7-dimethyl-2,7-dihydro-pyrazolo[3,4-d]pyrimidine-4,6-dione], the fold induction at 30 µM in data set [1] was 1.02; in data set [2] (Homo sapiens, C13, 12 h), 1.2. The “% Inhibition of PDE IV (normalized to rolipram)” value with PDE-IV amounted to 68%.

As to `CCCCn1c(=O)c2nn(S(=O)(=O)c3cccc4cccnc34)cc2n(CCCC)c1=O` [Example 12, 4,6-Dibutyl-2-(quinoline-8-sulfonyl)-2,4-dihydro-pyrazolo[4,3-d]pyrimidine-5,7-dione], the fold induction at 30 µM in data set [1] was 3.83; in data set [2] (Homo sapiens, C13, 12 h), 2.22. Further, the “% Inhibition of PDE IV (normalized to rolipram)” value in the data set with PDE-IV is given as 41%.

In the case of `CCCCn1c(=O)c2nn(S(=O)(=O)CCCCl)cc2n(CCCC)c1=O` [Example 1, 4,6-Dibutyl-3-chloropropanesulfonyl-2,4-dihydro-pyrazolo[4,3-d]pyrimidine-5,7-dione], the fold induction at 30 µM in data set [1] is 4.35; in data set [2] (Homo sapiens, C13, 12 h) it was 1.34.

With `CCCCn1c(=O)c2nn(S(=O)(=O)c3cccc(C(F)(F)F)c3)cc2n(CCCC)c1=O` [Example 3, 4,6-Dibutyl-2-(3-trifluoromethyl-benzenesulfonyl)-2,4-dihydro-pyrazolo[4,3-d]pyrimidine-5,7-dione], the fold induction at 30 µM in data set [1] is 3.79; in data set [2] (Homo sapiens, C13, 12 h), 1.79. Moreover, the “% Inhibition of PDE IV (normalized to rolipram)” value in the data set on PDE-IV turned out to be 68%.

`CCCCn1c(=O)c2nn(S(=O)(=O)CCCCl)cc2n(CCC(C)C)c1=O` [Example 20, 6-Butyl-2-(3-chloro-propane-1-sulfonyl)-4-(3-methyl-butyl)-2,4-dihydro-pyrazolo[4,3-d]pyrimidine-5,7-dione]: the fold induction at 30 µM was 2.25 in data set [1] and 1.57 in data set [2] (Homo sapiens, C13, 12 h). The “% Inhibition of PDE IV (normalized to rolipram)” value in the data set with PDE-IV came out at 42%.

The values are drawn from patent US6133273A, “Pyrazolopyrimidine-2,4-dione sulfonamides” (American Home Products Corporation, priority 1999, dated 2000).
